Tests used:
human SCLC cell line H69 = test: [3H]Thymidine incorporation assay in H69 cells; format: cell-based; conditions: 3 days; for [3H]thymidine incorporation into DNA of H69 cells (in words): RC-160 0.001 to 10.0 µg/ml, 5 days, RC-3005 or RC-3009 5.0 and 25.0 µg/ml; for [3H]Thymidine incorporation: Table V, mean s.e.
Source text: (§1) Br. J. Cancer (1994). 70, 886 892 ? Macmillan Press Ltd.. […] Bombesin GRP antagonists. […] Lung carcinoma is the leading cause of cancer-related deaths in the western world. It is estimated that in 1992 there were approximately 168,000 new cases of lung cancer in the US and that about 146,000 deaths occurred from this disease (Boring et al., 1992). […] The growth factors such as bombesin/gastrin-releasing pep- tide (GRP), epidermal growth factor, (EGF), transforming growth factor a (TGF-x) and insulin-like growth factor I(IGF-I) appear to play a role in the proliferation and pro- gression of lung cancer (Cuttitta et al., 1985; Veale et al., 1987; Minuto et al., 1988; Siegfried & Owens, 1988; Macaulay et al., 1990; Tateishi et al., 1991; Damstrup et al., 1992; Sethi & Rozengurt, 1992; Rabiasz et al., 1992; Moody & Cuttitta, 1993). […] Tpi is 2,3,4,9-tetrahydro- Correspondence: A.V. Schally (151). VA Medical Center, 1601 Per- dido Street. New Orleans, LA 70146. USA. Received 1 March 1994; and in revised form 5 July 1994. Br. J. Cancer (1994), 70, 886-892 C Macmillan Press Ltd., 1994 PEPTIDE ANALOGUES IN LUNG CANCER 8U7 lH-pyrido [3,4bjindol-3-carboxylic acid, a conformationally constrained secondary amine derivate of tryptophan and Tac is thiazolidine-4-carboxylic acid. […] Animals Male athymic NCr nulmu nude mice, approximately 6 weeks old on arrival, were obtained from the NCI (Bethesda, MD, USA) and maintained under pathogen-limited conditions. Cell lines The human SCLC cell line NCI-H69, was obtained from the American Type Cell Culture (ATCC), Rockville, MD, USA and the non-SCLC cell line NCI-H157, from Dr H. Oie, NCI-Navy Medical Oncology Branch, Bethesda, MD, USA. These cell lines were cultured in RPMI-1640 medium supple- mented with 4 mM L-glutamine, 50 units ml-I penicilln G sodium, SOigml-' streptomycin sulphate, 0.125pgml-' amphotericin B and 10% fetal bovine serum at 3TC in a humidified 95% air/5% carbon dioxide atmosphere. CeLs were passaged weekly and routinely monitored for myco- plasma contamination using a detection kit (Boehringer- Mannheim, Mannheim, Germany). All culture media com- ponents were purchased from Gibco (Grand Island, NY, USA). Receptor assays Preparation of membranes for receptor studies was described previously (Halmos et al., 1993). Iodinated EGF and IGF-I were purchased from Amersham (Arlington Heights, IL, USA). Radioiodination of other peptides and receptor bind- ing of EGF, IGF-I, somatostatin and bombesin/GRP were performed as previously described (Srkalovic et al., 1989; Szepeshazi et al., 1992). Complete displacement assays on tumour membranes were done only once because of the shortage of tumour material. The LIGAND PC computerised curve-fitting programme of Munson and Rodbard (1980) was used to determine the types of receptor binding, dissociation constant (Kd) values, and the maximal binding capacity (BDj) of receptors. In order to determine the specificity of the binding sites for radiolabelled EGF, IGF-I, somatostatin and bombesin to lung cancer membranes, various structuraly related and unrelated peptides were tested for their ability to inhibit the binding of the tracers. Histological procedure The histological procedures were the same as described previously (Szepeshazi et al., 1991, 1992). The number of mitotic and apoptotic cells per 1,000 cells was determined, and the percentage area of necrosis in tumour sections was examined using the point-counting method (Szepeshazi et al., 1991, 1992), in which the crossing points of an ocular net that coincide with necrosis in various sections are counted. Radiommunoassays Serum levels of growth hormone were determined by double- antibody radioimmunoassay (RIA) using materials supplied by the National Hormone and Pituitary Program of the National Institute of Diabetes and Digestive and Kidney Diseases (NIDDK).

[1] = system: Somatostatin receptors in membranes of SCLC H69 tumours; test: Somatostatin receptor binding on H69 tumour membranes after in vivo treatment; set-up: species or system human; conditions: Table IV, Experiment I (SCLC-H69); tumour membranes after in vivo treatment; control 450; done once
Source text: as §1, with “In order to determine the specificity of the binding sites for radiolabelled EGF, IGF-I, somatostatin and bombesin to lung cancer membranes, various structuraly related and unrelated peptides were tested for their ability to inhibit the binding of the tracers. Histological procedure The histological procedures were the same as described previously (Szepeshazi et al., 1991, 1992).” left out

[2] = system: human SCLC cell line NCI-H69; test: Growth of H69 SCLC xenografts in nude mice; format: in vivo, human (xenograft in male athymic nude mice); conditions: for Tumour weight: antagonists 20 µg/day per animal, control 0.27 ? 0.19; for Tumour doubling time: antagonists 20 µg/day per animal s.c., control 7.5; for Growth of H69 SCLC tumours (in words): s.c. peritumorally, bombesin/GRP antagonists 20 µg per animal per day
Source text: as §1

[3] = system: IGF-I receptors in membranes of SCLC H69 tumours; test: IGF-I receptor binding on H69 tumour membranes after in vivo treatment; set-up: species or system human; conditions: Table IV, Experiment I (SCLC-H69), control 294, done once
Source text: as §1, with “Receptor assays Preparation of membranes for receptor studies was described previously (Halmos et al., 1993). Iodinated EGF and IGF-I were purchased from Amersham (Arlington Heights, IL, USA). Radioiodination of other peptides and receptor bind- ing of EGF, IGF-I, somatostatin and bombesin/GRP were performed as previously described (Srkalovic et al., 1989; Szepeshazi et al., 1992). Complete displacement assays on tumour membranes were done only once because of the shortage of tumour material. The LIGAND PC computerised curve-fitting programme of Munson and Rodbard (1980) was used to determine the types of receptor binding, dissociation constant (Kd) values, and the maximal binding capacity (BDj) of receptors. In order to determine the specificity of the binding sites for radiolabelled EGF, IGF-I, somatostatin and bombesin to lung cancer membranes, various structuraly related and unrelated peptides were tested for their ability to inhibit the binding of the tracers. Histological procedure The histological procedures were the same as described previously (Szepeshazi et al., 1991, 1992).” left out

[4] = system: Bombesin/GRP receptors in membranes of SCLC H69 tumours; test: Bombesin/GRP receptor binding on H69 tumour membranes after in vivo treatment; set-up: species or system human; conditions: after in vivo treatment
Source text: as §1, with “In order to determine the specificity of the binding sites for radiolabelled EGF, IGF-I, somatostatin and bombesin to lung cancer membranes, various structuraly related and unrelated peptides were tested for their ability to inhibit the binding of the tracers. Histological procedure The histological procedures were the same as described previously (Szepeshazi et al., 1991, 1992).” left out

SCLC H69 tumours = test: Histology (mitosis, apoptosis, necrosis) of SCLC H69 tumours; format: in vivo, human (xenograft in nude mice); conditions: for Extent of necrosis (in words): SCLC H69 tumours, point-counting method, differences from control not significant statistically; for Apoptotic index / Mitotic index: Table II, Experiment I (SCLC H69), means ? s.e.; for Apoptotic index: apoptotic cells per 1,000 cells, control 35.4 ? 2.6; for Mitotic index: mitotic cells per 1,000 cells, control 37.9 ? 2.9, *P < 0.05 vs control
Source text: as §1

[5] = system: EGF receptors in membranes of SCLC H69 tumours; test: EGF receptor binding on H69 tumour membranes after in vivo treatment; set-up: species or system human; conditions: Table IV, Experiment I (SCLC-H69); tumour membranes after in vivo treatment; control 278; ten-point displacement in triplicate tubes, done once
Source text: as §1, with “In order to determine the specificity of the binding sites for radiolabelled EGF, IGF-I, somatostatin and bombesin to lung cancer membranes, various structuraly related and unrelated peptides were tested for their ability to inhibit the binding of the tracers. Histological procedure The histological procedures were the same as described previously (Szepeshazi et al., 1991, 1992).” left out

EGF receptors = conditions: various cancer lines and cancer specimens; ref Liebow et al., 1992; cited from earlier work
Source text: (§2) Br. J. Cancer (1994). 70, 886 892 ? Macmillan Press Ltd..

[6] = system: EGF receptor levels in tumour membranes (pancreatic, prostatic, mammary and colorectal cancers); conditions: associated with inhibition of growth of pancreatic, ref Radulovic et al., 1991b, Szepeshazi et al., 1991, 1992, Pinski et al., 1994a; cited from earlier work
Source text: as §2

[7] = system: IGF-I receptors in membranes of non-SCLC H157 tumours; test: IGF-I receptor binding on H157 tumour membranes after in vivo treatment; set-up: species or system human
Source text: as §1, with “Receptor assays Preparation of membranes for receptor studies was described previously (Halmos et al., 1993). Iodinated EGF and IGF-I were purchased from Amersham (Arlington Heights, IL, USA). Radioiodination of other peptides and receptor bind- ing of EGF, IGF-I, somatostatin and bombesin/GRP were performed as previously described (Srkalovic et al., 1989; Szepeshazi et al., 1992). Complete displacement assays on tumour membranes were done only once because of the shortage of tumour material. The LIGAND PC computerised curve-fitting programme of Munson and Rodbard (1980) was used to determine the types of receptor binding, dissociation constant (Kd) values, and the maximal binding capacity (BDj) of receptors. In order to determine the specificity of the binding sites for radiolabelled EGF, IGF-I, somatostatin and bombesin to lung cancer membranes, various structuraly related and unrelated peptides were tested for their ability to inhibit the binding of the tracers. Histological procedure The histological procedures were the same as described previously (Szepeshazi et al., 1991, 1992).” left out

[8] = system: non-SCLC cell line NCI-H157; test: Growth of H157 non-SCLC xenografts in nude mice; format: in vivo, human (xenograft in male athymic nude mice); conditions: RC-160 100 µg/day, RC-3095 20 µg/day
Source text: as §1

[9] = system: EGF receptors in membranes of non-SCLC H157 tumours; test: EGF receptor binding on H157 tumour membranes after in vivo treatment; set-up: species or system human
Source text: as §1, with “Receptor assays Preparation of membranes for receptor studies was described previously (Halmos et al., 1993). Iodinated EGF and IGF-I were purchased from Amersham (Arlington Heights, IL, USA). Radioiodination of other peptides and receptor bind- ing of EGF, IGF-I, somatostatin and bombesin/GRP were performed as previously described (Srkalovic et al., 1989; Szepeshazi et al., 1992). Complete displacement assays on tumour membranes were done only once because of the shortage of tumour material. The LIGAND PC computerised curve-fitting programme of Munson and Rodbard (1980) was used to determine the types of receptor binding, dissociation constant (Kd) values, and the maximal binding capacity (BDj) of receptors. In order to determine the specificity of the binding sites for radiolabelled EGF, IGF-I, somatostatin and bombesin to lung cancer membranes, various structuraly related and unrelated peptides were tested for their ability to inhibit the binding of the tracers. Histological procedure The histological procedures were the same as described previously (Szepeshazi et al., 1991, 1992).” left out

[10] = H69 SCLC xenografts, as compared with control group, RC-160 100 µg, RC-3950-II 20 µg per animal per day s.c. peritumorally, 5 weeks
[11] = Table I, Experiment I (SCLC-H69), 5 weeks s.c. peritumoral, RC-160 100 µg/day, means ? s.d., *P<0.05 vs control
[12] = Table I, Experiment I (SCLC-H69), 5 weeks, RC-160 100 µg/day

Substance	[3H]thymidine incorporation into DNA of H69 cells (in words) (human SCLC cell line H69)	[3H]Thymidine incorporation (human SCLC cell line H69; 1.0 µg/ml)	Somatostatin maximal binding capacity (Bmax) [1]	Tumour weight [2, 11]	Tumour doubling time [2, 12]	Growth of H69 SCLC tumours (in words) ([2]; RC-160 100 µg, 5 weeks)	IGF-I maximal binding capacity (Bmax) [3]	Concentration of receptors for bombesin/GRP on H69 tumours (in words) [4]	Extent of necrosis (in words) (SCLC H69 tumours)	Apoptotic index (SCLC H69 tumours)	Mitotic index (SCLC H69 tumours)	EGF maximal binding capacity (Bmax) [5]	further results
D-Trp23, D-Phe5, Leu27- GRP(14-27) [RC-3009]	significantly suppressed	98.4 0.8 per cent of control											[3H]Thymidine incorporation (human SCLC cell line H69; 5.0 µg/ml, *P<0.05 vs control): 92.7 2.0* per cent of control
His(Bz)2D, D-Trp23, D-Phe2, Leu'- GRP(14-27) [RC-3005]	significantly suppressed	100.0 2.0 per cent of control											
[D-Phe6, Leu'3*(CH,N)Tac'1 bombesin (6-14) [RC-3950-II]			390 fmol mg-'protein	0.03 0.03* g	16.8 days	greatest inhibitory effect	226 fmol mg' protein	reduced to non-detectable levels	less exten- sive	41.5	49.8	93 fmol mg' protein	Reduction in tumour volumes [2, 10]: more than 80%; Reduction in tumour weights [2, 10]: more than 80%
[D-Tpi6, Leu'3, *(CH2NH)Leu'4] bombesin (6- 14) [RC-3095]			480 fmol mg-'protein	0.081 0.06* g	12.2 days	inhibited the growth of H69 SCLC tumours	300 fmol mg' protein	reduced to non-detectable levels	less exten- sive	36.5	28.8	102 fmol mg' protein	Effect on phosphorylation of EGF receptors (in words) (EGF receptors): inhibits these effects; EGF receptor levels in tumour membranes (in words) [6]: major decrease in EGF receptor levels; Tumour volume, final ([2]; Table I, Experiment I (SCLC-H69), 5 weeks s.c. peritumoral, RC-160 100 µg/day, RC-3440, RC-3095, RC-3950-II 20 µg/day per animal, control 249.7 ? 182.3, means ? s.d., ten animals per group, *P<0.05 vs control): 80.2 mm³; IGF-I maximal binding capacity (Bmax) ([7]; Table IV, Experiment II (non-SCLC H157), tumour membranes after in vivo treatment, control 257, done once): 270 fmol mg' protein; IGF-I binding sites on H157 tumours (in words) ([7]; after in vivo treatment): no effect; Growth of H157 non-SCLC tumours (in words) ([8]; 4 weeks s.c., SB-75 100 µg/day per animal, vs control): No significant reduction in final tumour volume, tumour weight and tumour growth; Tumour volume, final ([8]; Table I, Experiment II (non-SCLC H157), 4 weeks s.c. peritumoral, SB-75 100 µg/day per animal, control 1580.3 ? 455.7, means ? s.d., ten animals per group, *P<0.05 vs control): 913 mm³; Tumour doubling time ([8]; Table I, Experiment II (non-SCLC H157), 4 weeks s.c., SB-75 100 µg/day, control 3.88): 4.42 days; EGF maximal binding capacity (Bmax) ([9]; Table IV, Experiment II (non-SCLC H157), tumour membranes after in vivo treatment, control 249, done once): 207 fmol mg' protein; EGF binding capacity on H157 tumours (in words) ([9]; after in vivo treatment): no effect
